These results are taken from US20260294908A1, “NEUROACTIVE ANDROGEN RECEPTOR MODULATORS AND USE THEREOF” (priority 2023, published 2026).

For series [1], the target named is recombinant human androgen receptor (AR) protein (Homo sapiens, UniProt P10275). The class given is binding.
The conditions of series [2]: for metabolites detected after administration: high-resolution mass spectrometry; for metabolites detected after administration / concentration of metabolites in serum and brain (in words): metabolite = compound of Example 3; for concentration of the compound in serum and brain (in words): after administration. The method, then: • (1) The experimental protocol was referenced and complied with the National Institutes of Health Guide for the Care and Use of Laboratory Animals, and was approved by the Laboratory Animal Welfare and Ethics Committee of the Chinese Institute for Brain Research (CIBR). • (2) Wild-type male C57BL/6J mice, aged 6-7 weeks and weighing 18-22 grams, were used. The mice were housed in a constant-temperature incubator with a 12-hour light-dark cycle and free access to food and water. Food was withheld one day before the experiment, while free access to water was permitted. The mice were injected intraperitoneally with the test compound at a dose of 20 mg/kg. […] After sampling, the samples were immediately centrifuged at low speed to remove blood cells, and hemolysis was minimized as much as possible. After collection, the serum was sent to the mass spectrometry center for pretreatment. • (4) The brain tissue was rapidly dissected after treatment and frozen in liquid nitrogen for later use.
The sample (100 μL) was warmed to the room temperature, acetonitrile: methanol (500 μL, v/v=50:50) was added to the solution, and the sample was vortexed for 20 s. The sample was centrifuged at 5,000 g for 15 min at 4° C. Subsequently, 90% of the supernatant was transferred to a glass tube and concentrated at 45° C. for 1.5 h using a vacuum concentrator. The dried sample was reconstituted in 400 μL of acetonitrile and water mixture (v/v=50/50) and vortexed for 20 s. The resulting mixture was transferred to an EP tube and centrifuged at 5,000 g for 15 min at 4° C. The supernatant was filtered through a 0.22 μm filter and analyzed by LC-MS/MS.
The brain sample (100 mg) was thawed, transferred to a homogenizer tube containing three zirconia beads, and homogenized. After processing as described for the serum samples, the supernatant was then filtered through a 0.22 μm filter, and analyzed by LC-MS/MS.

Another series deals with T1, androgen receptor (Homo sapiens, UniProt P10275).
T1 construct: expressed in transfected cells; host or cells: HEK293T (ATCC, CRL-3216)
T1 sequence (P10275 whole entry): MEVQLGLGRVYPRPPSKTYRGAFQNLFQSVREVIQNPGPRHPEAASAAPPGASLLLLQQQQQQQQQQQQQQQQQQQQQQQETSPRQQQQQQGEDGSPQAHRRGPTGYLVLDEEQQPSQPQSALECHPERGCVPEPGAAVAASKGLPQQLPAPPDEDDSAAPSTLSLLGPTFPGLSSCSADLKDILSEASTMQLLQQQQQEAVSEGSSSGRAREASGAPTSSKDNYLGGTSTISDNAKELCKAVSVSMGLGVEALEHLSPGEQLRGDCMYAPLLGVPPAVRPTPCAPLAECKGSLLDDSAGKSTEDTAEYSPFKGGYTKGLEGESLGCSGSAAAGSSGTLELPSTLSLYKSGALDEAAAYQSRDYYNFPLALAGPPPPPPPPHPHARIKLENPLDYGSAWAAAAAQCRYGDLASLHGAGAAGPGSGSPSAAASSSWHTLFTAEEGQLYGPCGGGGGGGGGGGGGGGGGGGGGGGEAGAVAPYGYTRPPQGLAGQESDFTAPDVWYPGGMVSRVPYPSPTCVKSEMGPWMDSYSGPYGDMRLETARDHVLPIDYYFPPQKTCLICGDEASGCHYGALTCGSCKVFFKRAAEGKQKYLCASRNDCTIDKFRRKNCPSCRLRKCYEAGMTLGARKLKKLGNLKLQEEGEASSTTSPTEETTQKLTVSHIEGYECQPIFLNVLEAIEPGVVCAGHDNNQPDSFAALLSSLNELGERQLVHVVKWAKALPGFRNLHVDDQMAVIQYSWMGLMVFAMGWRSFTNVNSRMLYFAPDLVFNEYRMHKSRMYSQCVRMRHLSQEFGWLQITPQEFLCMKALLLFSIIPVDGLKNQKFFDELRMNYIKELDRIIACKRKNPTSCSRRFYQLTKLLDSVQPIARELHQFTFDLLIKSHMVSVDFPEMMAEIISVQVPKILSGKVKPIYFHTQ
As to the kind of experiment: cell-based. The class given is cell-based. To be noted: for Emax: HEK-293T, read-out: % relative efficacy. The method, then: Androgen Receptor Reporter Gene Assay (AR Reporter Gene Assay)
This experiment was performed to investigate the agonistic activity of the compounds of the present disclosure on androgen receptors.
The EC50 was calculated according to the following formula: […]
X represents the logarithm of the activator concentration; Y represents the […]; Bottom represents the lowest plateau value of the curve; Top represents the highest plateau value of the curve; and Hillslope represents the slope of the curve.
The % relative effectiveness was calculated according to the following formula: […]
Activatedcmpd: mean activation value of the compound signal across the entire plate.
ActivatedAve_PC: mean activation value of the positive control across the entire plate.
ActivatedAve_VC: mean activation value of the vehicle control across the entire plate.

Where [3] appears, read: mouse, 20 mg/kg intraperitoneal.

Where two headings read alike, the source gives them in different places.

Sequence of recombinant human androgen receptor (AR) protein (P10275 673-918): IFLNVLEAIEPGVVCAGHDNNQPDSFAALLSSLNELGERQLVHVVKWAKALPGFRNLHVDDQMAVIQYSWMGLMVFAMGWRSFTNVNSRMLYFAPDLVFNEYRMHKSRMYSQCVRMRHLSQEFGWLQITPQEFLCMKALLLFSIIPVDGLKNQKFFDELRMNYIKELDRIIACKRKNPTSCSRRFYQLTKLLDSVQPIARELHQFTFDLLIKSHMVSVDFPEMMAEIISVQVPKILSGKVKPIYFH

With `C[C@](O)(COc1cc(C(F)(F)F)ncn1)C(=O)Nc1cnc(C#N)c(C(F)(F)F)c1` [Ex. 1, (S)-N-(6-cyano-5-(trifluoromethyl)pyridin-3-yl)-2-hydroxy-2-methyl-3-((6-(trifluoromethyl)pyrimidin-4-yl)oxy)propionamide], the “Affinity KD” value in series [1] was “No binding”.

As for `C[C@](O)(COc1cc(C(F)(F)F)ncn1)C(=O)Nc1ccc(C#N)c(C(F)(F)F)c1` [Ex. 2, (S)-N-(4-cyano-3-(trifluoromethyl)phenyl)-2-hydroxy-2-methyl-3-((6-(trifluoromethyl)pyrimidin-4-yl)oxy)propionamide], the “Affinity KD” value in series [1] (Biacore T200, CM5 chip, human AR Ile673-His918 with N-terminal His Tag) is on record as “No binding”.

`C[C@](O)(COc1ccc(C#N)cc1)C(=O)Nc1cnc(C#N)c(C(F)(F)F)c1` [Ex. 3, (S)-N-(6-cyano-5-(trifluoromethyl)pyridin-3-yl)-3-(4-cyanophenoxy)-2-hydroxy-2-methylpropionamide]: the “blood-brain barrier permeability (in words)” value in series [2] (setting [3]) is “good blood-brain barrier permeability”. Moreover, in series [2] (up to 72 h, 20 mg/kg intraperitoneal, parent compound), the “concentration detected in serum and brain (in words)” value is “certain concentrations of the compound were detected in serum and brain up to 72 h after administration”. The “affinity to the androgen receptor proteins (in words)” value in series [1] is “strong affinity”. Further, the “androgen receptor protein binding affinity and agonistic activity (in words)” value at androgen receptor is “excellent androgen receptor protein binding affinity and agonistic activity”.

As to `C[C@](O)(COc1ccc(C#N)nc1)C(=O)Nc1ccc(C#N)c(C(F)(F)F)c1` [Ex. 4, (S)-N-(4-cyano-3-(trifluoromethyl)phenyl)-3-((6-cyanopyridin-3-yl)oxy)-2-hydroxy-2-methylpropionamide], in series [1], the “affinity to the androgen receptor proteins (in words)” value is given as “strong affinity”.

With `C[C@](O)(COc1ccc(C#N)nc1)C(=O)Nc1cnc(C#N)c(C(F)(F)F)c1` [Ex. 5, (S)-N-(6-cyano-5-(trifluoromethyl)pyridin-3-yl)-3-((6-cyanopyridin-3-yl)oxy)-2-hydroxy-2-methylpropionamide], the “affinity to the androgen receptor proteins (in words)” value in series [1] is listed as “strong affinity”. Further, the “androgen receptor protein binding affinity and agonistic activity (in words)” value on androgen receptor was “excellent androgen receptor protein binding affinity and agonistic activity”.

With `C[C@](O)(COc1ccc(C#N)c(F)c1)C(=O)Nc1cnc(C#N)c(C(F)(F)F)c1` [Ex. 8, (S)-3-(4-cyano-3-fluorophenoxy)-N-(6-cyano-5-(trifluoromethyl)pyridin-3-yl)-2-hydroxy-2-methylpropionamide], the “concentration detected in serum and brain (in words)” value in series [2] (mouse, in vivo, ip, 20 mg/kg) is “certain concentrations of the compound were detected in serum and brain up to 72 h after administration”. Besides, the “blood-brain barrier permeability (in words)” value in series [2] (mouse, not told, ip, 20 mg/kg) is reported as “good blood-brain barrier permeability”.

`C[C@@](COc1ccc(C#N)cc1)(OC(=O)c1cccnc1)C(=O)Nc1cnc(C#N)c(C(F)(F)F)c1` [Ex. 13, (S)-1-((6-cyano-5-(trifluoromethyl)pyridin-3-yl)amino)-3-(4-cyanophenoxy)-2-methyl-1-oxopropan-2-yl nicotinate]: in series [2], the “metabolites detected after administration” value (“metabolites detected” below) is “detected”; the “concentration of metabolites in serum and brain (in words)” value (“concentration of metabolites” below) is “higher concentrations of metabolites”. Also, in series [2] (setting [3]), the “blood-brain barrier permeability (in words)” value is on record as “certain blood-brain barrier permeability”. For the same compound, in series [2] (parent compound), the “concentration of the compound in serum and brain (in words)” value (from here on “concentration of the compound”) is “lower concentrations of the compound”.

For `C[C@@](COc1ccc(C#N)cc1)(OC(=O)CCCC[C@@H]1CCSS1)C(=O)Nc1cnc(C#N)c(C(F)(F)F)c1` [Ex. 15, (S)-1-((6-cyano-5-(trifluoromethyl)pyridin-3-yl)amino)-3-(4-cyanophenoxy)-2-methyl-1-oxopropyl-2-yl 5-((R)-1,2-dithiolan-3-yl) pentanoate], in series [2] (mouse, in vivo), the “metabolism (in words)” value is “may undergo rapid metabolic processes in vivo”.

As for `CC(C)C(=O)O[C@@](C)(COc1ccc(C#N)cc1)C(=O)Nc1cnc(C#N)c(C(F)(F)F)c1` [Ex. 21, (S)-1-((6-cyano-5-(trifluoromethyl)pyridin-3-yl)amino)-3-(4-cyanophenoxy)-2-methyl-1-oxopropan-2-yl isobutyrate], in series [2], the “metabolites detected” value was “detected”; the “concentration of metabolites” value was “higher concentrations of metabolites”. In addition, the “blood-brain barrier permeability (in words)” value in series [2] (setting [3]) is “certain blood-brain barrier permeability”. In addition, the “concentration of the compound” value in series [2] (parent compound) is reported as “lower concentrations of the compound”.

Regarding `C[C@@](COc1ccc(C#N)cc1)(OC(=O)C1CCCC1)C(=O)Nc1cnc(C#N)c(C(F)(F)F)c1` [Ex. 22, (S)-1-((6-cyano-5-(trifluoromethyl)pyridin-3-yl)amino)-3-(4-cyanophenoxy)-2-methyl-1-oxopropan-2-yl cyclopentanecarboxylate], in series [2], the “metabolites detected” value is on record as “detected”; the “concentration of metabolites” value is given as “higher concentrations of metabolites”. Also, the “blood-brain barrier permeability (in words)” value in series [2] (setting [3]) was “certain blood-brain barrier permeability”. The “concentration of the compound” value in series [2] (parent compound) is on record as “lower concentrations of the compound”. For the same compound, on androgen receptor, the Emax came to 2.3%.

Take `CC(=O)O[C@@](C)(COc1ccc(C#N)cc1)C(=O)Nc1cnc(C#N)c(C(F)(F)F)c1` [Ex. 24, (S)-1-((6-cyano-5-(trifluoromethyl)pyridin-3-yl)amino)-3-(4-cyanophenoxy)-2-methyl-1-oxopropan-2-yl acetate]: the “bioavailability in the brain (in words)” value in series [2] (compared with Example 3) was “significantly improved”. In addition, in series [2], the “metabolites detected” value is recorded as “detected”. In series [2] (in vivo, mouse), the “metabolism (in words)” value is on record as “partially metabolized to the compound of Example 3”. Further, the “total concentration of parent drug and metabolites in the brain (in words)” value in series [2] (mouse, in vivo) is recorded as “significantly higher”.

For `C[C@@](COc1ccc(C#N)cc1)(OC(=O)c1ccccc1)C(=O)Nc1cnc(C#N)c(C(F)(F)F)c1` [Ex. 26, (S)-1-((6-cyano-5-(trifluoromethyl)pyridin-3-yl)amino)-3-(4-cyanophenoxy)-2-methyl-1-oxopropan-2-yl benzoate], in series [2], the “metabolites detected” value was “detected”; the “concentration of metabolites” value is reported as “higher concentrations of metabolites”. For the same compound, the “blood-brain barrier permeability (in words)” value in series [2] (setting [3]) is listed as “certain blood-brain barrier permeability”. The “concentration of the compound” value in series [2] (parent compound) is listed as “lower concentrations of the compound”. For the same compound, the “affinity to the androgen receptor proteins (in words)” value in series [1] is “strong affinity”.

Consider `CCC(=O)O[C@@](C)(COc1ccc(C#N)cc1)C(=O)Nc1cnc(C#N)c(C(F)(F)F)c1` [Ex. 28, (S)-1-((6-cyano-5-(trifluoromethyl)pyridin-3-yl)amino)-3-(4-cyanophenoxy)-2-methyl-1-oxopropan-2-yl-propionate], for which, in series [2], the “metabolites detected” value is “detected”; the “concentration of metabolites” value is given as “higher concentrations of metabolites”. In series [2] (setting [3]), the “blood-brain barrier permeability (in words)” value is “certain blood-brain barrier permeability”. The “concentration of the compound” value in series [2] (parent compound) was “lower concentrations of the compound”.

With `C[C@@](COc1ccc(Cl)nc1)(OC(=O)c1cccnc1)C(=O)Nc1cnc(C#N)c(C(F)(F)F)c1` [Ex. 30, (S)-1-((6-cyano-5-(trifluoromethyl)pyridin-3-yl)amino)-3-((6-chloropyridin-3-yl)oxy)-2-methyl-1-oxopropan-2-yl nicotinate], at androgen receptor, the Emax worked out at 14.5%.
